Laboratory results published in the SangsterLogP compilation.

Row | Compound | logP
1 | CCOCCOCCOCC | 0.39
2 | COC(=O)CCC(=O)OC | 0.19
3 | CCCCOCCOCCCC | 2.48
4 | CCCCOCCOCCOCCCC | 1.92
5 | COCCOC | -0.21
6 | COCCOCCOC | -0.36
7 | CCCCOCCO | 0.76

Second part, the compound after the results:

Row | logP | Compound
8 | 1.7 | CCCCCCOCCOCCO
9 | 1.19 | CCOC(=O)CCC(=O)OCC
10 | -0.54 | CCOCCOCCO
11 | 0.66 | CCOCCOCC
12 | 1.86 | CCCCCCOCCO
13 | 3.21 | CCCCOCCCC
14 | 0.56 | CCCCOCCOCCO
15 | 2.16 | CCCOC(=O)CCC(=O)OCCC
